Literature values, collected in US20220015356A1, “AQUEOUS SOLUTIONS OF POORLY SOLUBLE PESTICIDES USING POLYALKYOXYLATED ALCOHOLS” (priority 2018, published 2022).

Conditions: at 20° C.

COC(=O)N(OC)c1ccccc1COc1ccn(-c2ccc(Cl)cc2)n1 [pyraclostrobin]
water solubility: < 1.9 µg/mL
